Source: US20160346255A1, “METHODS, AGENTS AND COMPOSITIONS FOR TREATMENT OF INFLAMMATORY CONDITIONS” (Betanien Hospital, priority 2014, published 2016)

How the values were obtained:
Format in all cases: in vivo, human
[1] = system: Patient with Psoriatic Arthritis; test: Psoriatic arthritis patient treated with oral ASP1707; conditions: 3 mg daily for 12 weeks; response at 4 months
Experimental: • person with psoriatic arthritis • Fulfills CASPAR 2006 classification criteria for psoriatic arthritis.
• Is offered experimental GnRH antagonist therapy, ASP1707 3 mg daily for 12 weeks.

[2] = system: post-menopausal female with rheumatoid arthritis; test: Post-menopausal RA patients on methotrexate, oral ASP1707 30 mg twice daily for 12 weeks; conditions: ASP1707+MTX; Week 12; assuming placebo+MTX 30%
Experimental: • Patient is offered experimental GnRH antagonist therapy, ASP1707 30 mg twice daily for 12 weeks orally. Primary Assessment is ACR20 response rate at 12 weeks.

[3] = system: patient with cancer-related inflammation; test: Cancer-related inflammation, colon cancer patient treated with oral ASP1707; conditions: 8 mg daily, at 3 months
Source text: • person with colon cancer with disease duration of 1 year. Suffers from signs and symptoms of cancer-related inflammation, such as pain, anorexia, and fatigue.

Q: Which DAS reduction [1] does the source give for `C[C@@H](O)C(=N)NS(=O)(=O)c1cc(C(=O)C(C(=O)c2cc(F)ccc2F)=C2Nc3ccccc3N2)ccc1F` [ASP1707, (2R)—N-({5-[3-(2,5-difluorophenyl)-2-(1,3-dihydro-2H-benzoimidazol-2-ylidene)-3-oxopropanoyl]-2-fluorophenyl}sulfonyl)-2-hydroxypropanimidamide] here?
A: over 0.6 units

Q: And the ACR20 response rate [2]?
A: 60%

Q: And the “Signs and symptoms of cancer related inflammation (pain, anorexia, fatigue)” value [3]?
A: reduced

Q: What about the CRP ([3]; baseline 40 mg/L) of the same molecule?
A: 12 mg/L
